According to patent publication US20230114241A1, “METHODS OF TREATING EPILEPSY USING THE SAME” (Trevena, Inc., priority 2019, published 2023):

The molecules below were run against human sphingosine-1-phosphate receptor 1 (S1P1) (Homo sapiens, UniProt P21453) (assay: Inhibition of cAMP production (HTRF cAMP HiRange), S1P1 CHO-K1 cells). Conditions: inhibition of cAMP production; potency; read-out: hS1P1 CAMP pEC50 (converted).
Format: cell-based
Method: Stable clonal Chinese hamster ovary K1 (CHO-K1) cells co-expressing EA-β-arrestin2 and the human sphingosine-1-phosphate receptor 1 (NM_001400, S1P1) with a C-terminal Prolink™ tag were purchased from DiscoverX corporation (Cat #: 93-0207C2).
Cell lines were cultured in AssayComplete™ Media 6 (DiscoverX Corporation, Cat #: 920018GF2) at 37° C. and 5% CO2 in a humidified CO2 and temperature-controlled incubator. To begin assay plating, cells were washed with Dulbecco's phosphate buffered saline (CellGro, Cat #: 21-031-CV) and lifted from the culturing flask by incubation (37° C., 5 min) with CellStripper (Cellgro, Cat #: 25-056-CI). […] Plated cells were incubated overnight at 37° C. and 5% CO2 in a humidified CO2 and temperature-controlled incubator.
Agonist-promoted G-protein responses were determined by measuring changes in intracellular cAMP using the HTRF® cAMP HiRange kit (CisBio, Cat #: 62AM6PEJ) based on time-resolved fluorescence resonance energy transfer (TR-FRET) technology. […] Following a 30-minute incubation at 37° C. and 5% CO2 in a humidified CO2 and temperature-controlled incubator, the components of the cAMP HiRange kit were added as per the manufacturer's instructions. After an hour incubation at room temperature, plates were analyzed by a BMG PheraStar microplate reader.
These values are normalized to fingolimod, a known agonist of the sphingosine-1-phosphate 1 receptor.

human sphingosine-1-phosphate receptor 1 (S1P1), sequence (P21453 whole entry): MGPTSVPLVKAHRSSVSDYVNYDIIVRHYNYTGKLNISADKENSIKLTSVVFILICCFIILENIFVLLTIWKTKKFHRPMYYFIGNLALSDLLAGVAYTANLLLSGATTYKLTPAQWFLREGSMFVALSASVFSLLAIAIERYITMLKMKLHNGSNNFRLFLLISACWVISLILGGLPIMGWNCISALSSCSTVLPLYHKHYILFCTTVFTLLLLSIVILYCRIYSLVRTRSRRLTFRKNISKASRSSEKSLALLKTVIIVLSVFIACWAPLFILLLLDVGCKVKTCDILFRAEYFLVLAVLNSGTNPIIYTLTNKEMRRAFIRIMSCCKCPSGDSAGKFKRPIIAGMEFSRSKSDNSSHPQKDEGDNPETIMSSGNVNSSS

EC50	Compound
> 316 nM	Cc1ccccc1-c1noc(-c2ccc3c(c2)nnn3C2CCOCC2)n1 [Compound 95, 5-[3-(2-methylphenyl)-1,2,4-oxadiazol-5-yl]-1-(oxan-4-yl)-1H-1,2,3-benzotriazole]
> 316 nM	Brc1ccccc1-c1nc(-c2ccc3[nH]nnc3c2)no1 [Compound 97, 3-(1H-benzo[d][1,2,3]triazol-5-yl)-5-(2-bromophenyl)-1,2,4-oxadiazole]
> 316 nM	Brc1ccccc1-c1nc(-c2ccc3c(c2)nnn3CC2CC2)no1 [Compound 98, 5-(2-bromophenyl)-3-(1-(cyclopropylmethyl)-1H-benzo[d][1,2,3]triazol-5-yl)-1,2,4-oxadiazole]
> 316 nM	Cc1ccncc1-c1nc(-c2ccc3c(c2)nnn3C(C)C)no1 [Compound 100, 3-(1-isopropyl-1H-benzo[d][1,2,3]triazol-5-yl)-5-(4-methyl-pyridin-3-yl)-1,2,4-oxadiazole]
< 316 nM	Cc1ccncc1-c1noc(-c2ccc3c(c2)nnn3C(C)C)n1 [Compound 101, 5-[3-(4-methylpyridin-3-yl)-1,2,4-oxadiazol-5-yl]-1-(propan-2-yl)-1H-1,2,3-benzotriazole]
> 316 nM	O=C1CCOc2ccc(-c3nc(-c4cccnc4)no3)cc21 [Compound 102, 6-[3-(pyridin-3-yl)-1,2,4-oxadiazol-5-yl]-3,4-dihydro-2H-1-benzopyran-4-one]
< 316 nM	CCC1(CC)CC(=O)c2cc(-c3nnc(-c4cccnc4)s3)ccc2O1 [Compound 104, 2,2-diethyl-6-(5-(pyridin-3-yl)-1,3,4-thiadiazol-2-yl)chroman-4-one]
> 316 nM	CCC1(CC)CC(=O)c2cc(-c3nc(-c4ccc(O)nc4)no3)ccc2O1 [Compound 105, 2,2-diethyl-6-[3-(6-hydroxy-3-pyridyl)-1,2,4-oxadiazol-5-yl]chroman-4-one]
< 316 nM	CCC1(CC)CC(=O)c2cc(-c3nc(-c4ccc(S(N)(=O)=O)cc4)no3)ccc2O1 [Compound 106, 4-(5-(2,2-diethyl-4-oxochroman-6-yl)-1,2,4-oxadiazol-3-yl)benzenesulfonamide]
< 316 nM	CC(C)Nc1ccc(-c2nc(-c3ccc4c(c3)CC(=O)N4)no2)cc1C#N [Compound 107, 2-(isopropylamino)-5-(3-(2-oxoindolin-5-yl)-1,2,4-oxadiazol-5-yl)benzonitrile]
< 316 nM	COc1cccc(-c2cnc(-c3ccc4c(c3)nnn4C(C)C)s2)c1 [Compound 108, 2-(1-isopropyl-1H-benzo[d][1,2,3]triazol-5-yl)-5-(3-methoxy-phenyl)thiazole]
> 316 nM	COc1ccc(-c2cnc(-c3ccc4c(c3)nnn4C(C)C)s2)cc1 [Compound 109, 2-(1-isopropyl-1H-benzo[d][1,2,3]triazol-5-yl)-5-(4-methoxy-phenyl)thiazole]
> 316 nM	CC(C)n1nnc2cc(-c3ncc(-c4cccc(F)c4)s3)ccc21 [Compound 110, 5-(3-fluorophenyl)-2-(1-isopropyl-1H-benzo[d][1,2,3]triazol-5-yl)thiazole]
> 316 nM	CCC1(CC)CC(=O)c2cc(-c3nc(-c4ccccn4)no3)ccc2O1 [Compound 111, 2,2-diethyl-6-[3-(2-pyridyl)-1,2,4-oxadiazol-5-yl]chroman-4-one]
> 316 nM	FC(F)(F)c1cc(Br)ccc1-c1noc(-c2ccc3c(c2)nnn3C2CCCC2)n1 [Compound 114, 5-{3-[4-bromo-2-(trifluoromethyl)phenyl]-1,2,4-oxadiazol-5-yl}-1-cyclopentyl-1H-1,2,3-benzotriazole]
< 316 nM	Brc1ccccc1-c1nc(-c2ccc3c(c2)nnn3C2CCCCC2)no1 [Compound 115, 5-(2-bromophenyl)-3-(1-cyclohexyl-1H-benzo[d][1,2,3]triazol-5-yl)-1,2,4-oxadiazole]
> 316 nM	COc1cc(-c2nc(-c3ccc4c(c3)nnn4C(C)C)no2)ccn1 [Compound 116, 3-(1-isopropyl-1H-benzo[d][1,2,3]triazol-5-yl)-5-(2-methoxypyridin-4-yl)-1,2,4-oxadiazole]
